Reference: patent US5001137A, “Pyridine compounds and pharmaceutical use thereof” (Yoshitomi Pharmaceutical Industries, Ltd., priority 1988, dated 1991)
pIC50: −log10 of the molar value.

What follows are compounds tested against T1, prolylendopeptidase (Rattus norvegicus, UniProt O70196) (assay: Measurement of prolylendopeptidase-inhibitory activity (rat cerebral soluble fractions as crude enzyme; succinyl-glycyl-prolylmethylcoumarinamide substrate, fluorescence)). Settings: rat cerebral soluble fraction, pH 7.0, 30° C., 15 minutes, 0.25% dimethylsulfoxide.
T1 construct: using rat cerebral soluble fractions as the crude enzyme; from tissue; host or cells: rat cerebrum, soluble fraction (crude enzyme)
T1 sequence (O70196 whole entry): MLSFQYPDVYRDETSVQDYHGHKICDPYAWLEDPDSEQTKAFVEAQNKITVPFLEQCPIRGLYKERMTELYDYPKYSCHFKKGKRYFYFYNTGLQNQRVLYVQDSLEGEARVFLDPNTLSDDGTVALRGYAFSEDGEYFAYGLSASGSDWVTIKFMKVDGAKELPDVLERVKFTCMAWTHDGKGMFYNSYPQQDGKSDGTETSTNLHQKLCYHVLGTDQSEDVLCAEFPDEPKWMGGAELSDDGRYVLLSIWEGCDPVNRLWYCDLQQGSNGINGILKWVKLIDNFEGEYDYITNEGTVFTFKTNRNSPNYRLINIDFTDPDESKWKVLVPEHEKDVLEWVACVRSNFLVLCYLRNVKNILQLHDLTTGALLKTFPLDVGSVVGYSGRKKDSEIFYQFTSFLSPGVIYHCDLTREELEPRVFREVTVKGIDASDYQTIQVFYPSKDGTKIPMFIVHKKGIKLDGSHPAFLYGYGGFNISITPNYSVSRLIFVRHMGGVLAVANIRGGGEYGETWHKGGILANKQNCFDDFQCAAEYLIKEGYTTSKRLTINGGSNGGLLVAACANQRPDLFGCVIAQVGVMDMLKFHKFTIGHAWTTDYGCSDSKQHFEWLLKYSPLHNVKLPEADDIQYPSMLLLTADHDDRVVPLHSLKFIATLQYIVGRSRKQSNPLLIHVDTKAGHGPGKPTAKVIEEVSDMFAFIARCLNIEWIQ
Format: biochemical
Description: The prolylendopeptidase-inhibitory activity was estimated, using rat cerebral soluble fractions as the crude enzyme, in accordance with the methods by Yoshimoto et al (Biochem. Biophys. Acta., vol. 569, p 184 (1979)) and Kato et al. (J. Neurochem., vol. 35, p 527 (1980)). That is, a mixture containing 0.1 ml of 0.25 mM succinyl-glycyl-prolylmethylcoumarinamide, 1.15 ml of 0.1M Na/K phosphate buffer solution (pH 7.0), 0.1 ml of the crude enzyme and 0.1 ml of a solution of the compound of the present invention (at the final concentration of dimethylsulfoxide of 0.25%) was incubated at 30° C. for 15 minutes. Thereafter 1.5 ml of 0.1M acetate buffer solution (pH 4.2) was added to terminate the reaction. The fluorescence intensity (a) of the liberated methyl coumarinamide was measured by a fluorophotometer (Ex. 370 nm, Em. 440 nm). At the same time, the fluorescence intensity (b) of the control comprising a dimethylsulfoxide solution alone (at the final concentration of 0.25%) instead of the compound of the present invention was measured, and the prolylendopeptidase-inhibitory rate was calculated in accordance with the following formula and the concentration at which 50% of inhibition (IC50) can be attained was estimated.
Inhibition (%)={(b-a)/b)}×100

Compared with `CN(C)CCCCCCOc1ccc(Oc2ncccc2C(=O)c2cccs2)cc1` [Example 2, 2-[4-(6-dimethylaminohexyloxy)phenoxy]-3-(2-thenoyl)pyridine], `CN(C)CCCOc1ccc(Oc2ncccc2C(=O)c2cccs2)cc1` [Example 4, 2-[4-(3-dimethylaminopropoxy)phenoxy]-3-(2-thenoyl)pyridine] is 0.30 log units lower in pIC50: 7.52 for the first, 7.22 for the second. The first is the more potent here.

Going from `CN(C)CCc1ccc(Oc2ncccc2C(=O)c2cccs2)cc1` [Example 1, 2-[4-(2-dimethylaminoethyl)phenoxy]-3-(2-thenoyl)pyridine] to `CN(C)CCCCCCOc1ncccc1C(=O)c1cccs1` [Example 13, 2-(6-dimethylaminohexyloxy)-3-(2-thenoyl)pyridine], the pIC50 falls from 7.85 to 7.26 (0.59 log units). The first is the more potent here.

`CC(CSCCCCCCN(C)C)Sc1ncccc1C(=O)c1cccs1` (stereo not shown) [Example 17, 2-[2-(6-Dimethylaminohexylthio)-1-methylethylthio]-3-(2-thenoyl)pyridine] and `CC(CSCCCN(C)C)Sc1ncccc1C(=O)c1cccs1` (stereo not shown) [Example 20, 2-[2 (3-Dimethylaminopropylthio)-1-methylethylthio]-3-(2-thenoyl)pyridine] are the same in pIC50: 8.35 for the first, 8.35 for the second.

Going from `CC(C)c1ccc(C(=O)c2cccs2)c(SCCCCCCN(C)C)n1` [Example 21, 2-(6-Dimethylaminohexylthio)-6-isopropyl-3-(2-thenoyl)pyridine] to `CCN(CC)CCCCCCSc1nc(C(C)C)ccc1C(=O)c1cccs1` [Example 22, 2-(6-Diethylaminohexylthio)-6-isopropyl-3-(2-thenoyl)pyridine], the pIC50 falls from 8.26 to 7.96 (0.30 log units).

Compared with `CN(CCCCCCOc1ncccc1C(=O)c1cccs1)Cc1ccccc1` [Example 6, 2-[6-(N-benzyl-N-methylamino)hexyloxy]-3-(2-thenoyl)pyridine], `CN(C)CCCCCCSc1ncccc1C(=O)c1cccs1` [Example 5, 2-(6-dimethylaminohexylthio)-3-(2-thenoyl)pyridine] is 0.91 log units higher in pIC50: 7.11 for the first, 8.02 for the second.

Going from `Cc1ccc(C(=O)c2cccs2)c(SCCCCCCN(C)C)n1` [Example 18, 2-(6-Dimethylaminohexylthio)-6-methyl-3-(2-thenoyl)pyridine] to `CN(C)CCCCCCSCCSc1ncccc1C(=O)c1cccs1` [Example 19, 2-[2-(6-Dimethylaminohexylthio)ethylthio]-3-(2-thenoyl)pyridine], the pIC50 rises from 8.02 to 8.35 (0.33 log units). The second is the more potent here.

Work on `CN(C)CCCOc1ncccc1C(=O)c1ccc(Cl)cc1` [Known Compound, 3-(4-chlorobenzoyl)-2-(3-dimethylaminepropoxy)pyridine, reference compound] yielded a pIC50 of 2.74.
